System: Salmonella typhimurium TA 1535
Assay: Mutagenicity test (AMES Test, OECD Guidelines for Testing of Chemicals No. 471)
Format: cell-based
Settings: without dilution
From the text: One of the important consideration published in the European Commission 2005/69/EC (European legislation) confirmed the restriction that the level of 8 Grimmers PAHs especially Benzo(a)pyrene (BaP) with amount exceeding the allowed limit will be considered as carcinogenic, mutagenic and toxic, and thereby will be prohibited to produce and distribute within the European legislation area. The presence of PAHs can be detected qualitatively and quantitatively using Benzo(a)Pyrene (BaP) as marker. Commonly known method to measure carcinogenic and mutagenic compound is ASTM E 1687-98 method (Ames test method for determining carcinogenic potential of Virgin Base Oils in Metalworking Fluids) and also Ames test based on OECD Guidelines for Testing of Chemicals No 471(1997). In the present invention method of AMES test using Salmonella typhimurium TA 1535 as microbes that is very sensitive to mutagenic compounds.
The mutagenity test was conducted using AMES Test based on OECD Guidelines for Testing of Chemicals No. 471 (1997). In this test Salmonella typhimurium TA 1535 was used as microbe material which was very sensitive to mutagenic compound. The number of colony which grew was an indicator of mutagenic activity of the PAH compound in the DAE Feed, TDAE-1 and TDAE-2, respectively. […]

**Q.** How did the “Average Number of Colony Koloni” value (With S-9 Mix) turn out when C[S+](C)[O-] [DMSO, dimethylsulfoxide] was run?
**A.** 377

**Q.** What about the “Average Number of Colony Koloni” value (Without S-9 Mix) of the same compound?
**A.** 314

From patent US10308881B2, “Process to produce oil with low polyaromatic hydrocarbon content” (PT PERTAMINA (PERSERO), priority 2010, dated 2019)
